Here are results for 5 compounds from ChEMBL document CHEMBL5131451, “BOPPY-based novel fluorescent dopamine D2 and D3 receptor ligands” (Bioorg Med Chem Lett, 2022).

Experiment [1] concerns the target D(2) dopamine receptor (Homo sapiens, UniProt P14416). The experiment can be described thus: Binding affinity to dopamine D2S receptor (unknown origin) by radioligand displacement assay.
The species entered for experiment [2] is Homo sapiens. Put plainly: Ratio of Ki for binding affinity to D2S (unknown origin) to Ki for binding affinity to D3R (unknown origin).
The target of experiment [3] is D(3) dopamine receptor (Homo sapiens, UniProt P35462). Put plainly: Binding affinity to dopamine D3 receptor (unknown origin) by radioligand displacement assay. A general note: Displacement assays read how much labelled ligand stays bound in the presence of the test substance.

pKi: −log10 of the molar value.

D(2) dopamine receptor, sequence (P14416 whole entry): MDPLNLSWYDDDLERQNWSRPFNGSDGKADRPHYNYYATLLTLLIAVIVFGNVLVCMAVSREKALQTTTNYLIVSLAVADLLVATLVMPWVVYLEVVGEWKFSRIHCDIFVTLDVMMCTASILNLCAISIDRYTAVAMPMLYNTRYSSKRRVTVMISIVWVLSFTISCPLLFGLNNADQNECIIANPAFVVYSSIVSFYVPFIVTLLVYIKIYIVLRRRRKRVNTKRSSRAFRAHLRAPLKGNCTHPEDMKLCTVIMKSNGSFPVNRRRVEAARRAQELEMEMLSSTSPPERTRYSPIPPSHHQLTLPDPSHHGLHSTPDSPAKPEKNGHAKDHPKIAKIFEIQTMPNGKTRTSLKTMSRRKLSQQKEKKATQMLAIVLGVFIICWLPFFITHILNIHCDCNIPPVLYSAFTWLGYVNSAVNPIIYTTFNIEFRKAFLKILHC
D(3) dopamine receptor, sequence (P35462 whole entry): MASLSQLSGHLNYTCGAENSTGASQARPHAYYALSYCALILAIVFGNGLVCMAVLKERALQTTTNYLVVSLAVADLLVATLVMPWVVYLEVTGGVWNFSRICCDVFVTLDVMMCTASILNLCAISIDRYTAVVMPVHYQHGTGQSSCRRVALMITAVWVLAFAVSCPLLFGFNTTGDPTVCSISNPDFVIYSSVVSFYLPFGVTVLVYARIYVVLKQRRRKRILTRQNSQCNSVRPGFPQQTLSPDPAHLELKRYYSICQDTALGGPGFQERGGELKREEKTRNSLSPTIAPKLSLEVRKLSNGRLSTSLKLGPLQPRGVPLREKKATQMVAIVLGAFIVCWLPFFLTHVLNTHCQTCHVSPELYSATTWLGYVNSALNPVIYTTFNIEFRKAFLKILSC

The pKi is the Ki on a negative log10 scale, so that one unit is a factor of ten. Regarding `Cc1cc(C)n2c1C=[N+]1[N+](=C3C=CC=C(NCCCCN4CCN(c5cccc(Cl)c5Cl)CC4)N3[B-]1(F)F)[B-]2(F)F`, the pKi is 6.48 in experiment [1] and 7.65 in experiment [3]. In addition, the Ratio Ki in experiment [2] stood at 14.6.

For `CCc1c(C)c2n(c1C)[B-](F)(F)[N+]1=C3C=CC=C(NCCCCN4CCN(c5cccc(Cl)c5Cl)CC4)N3[B-](F)(F)[N+]1=C2`, the pKi in experiment [1] was 6.30; in experiment [3], 7.28. In experiment [2], the Ratio Ki came to 9.

Turning to `COc1ccccc1N1CCN(CCCCNC2=CC=CC3=[N+]4[N+](=Cc5cc6ccccc6n5[B-]4(F)F)[B-](F)(F)N23)CC1`, the pKi is 6.74 in experiment [1] and 7.78 in experiment [3]. For the same compound, the Ratio Ki in experiment [2] came to 10.9.

Take `COc1ccccc1N1CCN(CCCCNC2=CC=CC3=[N+]4[N+](=Cc5c(C)cc(C)n5[B-]4(F)F)[B-](F)(F)N23)CC1`: the pKi was 7.09 in experiment [1] and 7.57 in experiment [3]. Moreover, the Ratio Ki in experiment [2] was found to be 3.

As for `CCc1c(C)c2n(c1C)[B-](F)(F)[N+]1=C3C=CC=C(NCCCCN4CCN(c5ccccc5OC)CC4)N3[B-](F)(F)[N+]1=C2`, the figures for the pKi in experiment [1] and in experiment [3] were 6.51 and 7.46, respectively. In addition, the Ratio Ki in experiment [2] was 9.5.
